Data on 20 compounds can be found in US8222247B2, “Modulators of glucocorticoid receptor, AP-1, and/or NF-kappabeta activity and use thereof” (Bristol-Myers Squibb Company, priority 2006, dated 2012).

In the experiment the test system is AP-1 induced transcriptional activity. In words: Cellular Transrepressional Assay (AP-1 luciferase reporter in A549 cell, PMA activated). It is filed as cell-based. The following applies: pAP-1-Luc; for AP-1 Max % inh (Cellular Transrepression Assay) / Emax: maximum inhibition, PMA; for EC50: 10 ng/ml PMA, 7 hours, read-out: AP-1 EC50, nM (Cellular Transrepression Assay); for Emax: read-out: AP-1 Max % inh (Cellular Transrepression Assay). Here is the method:
Cellular Transrepressional Assay
To measure the ability of test molecules to inhibit AP-1 induced transcriptional activity we utilized an A549 cell which was stably transfected with a plasmid containing 7×AP-1 DNA binding sites (pAP-1-Luc plasmid, Stratagene Co. La Jolla, Calif.) followed by the gene for luciferase. Cells were activated with 10 ng/ml of phorbol myristic acid (PMA) plus or minus test molecules for 7 hours. After 7 hours a luciferase reagent was added to measure luciferase enzymatic activity in the cell. After a 10 minute incubation of luciferase reagent with cells, luminescence was measured in a TopCount luminescence counter. Repression of AP-1 activity was calculated as the percentage decrease in the signal induced by PMA alone. Test molecules were analyzed in the concentration range from 0.1 nM to 40 μM. EC50s were determined by using standard curve fitting methods such as Excel fit (Microsoft Co.). An EC50 is the test molecule concentration at which there is a 50% repression of the maximal inhibition of transcription, i.e. a 50% reduction of AP-1 activity.
In general terms: Reporter assays use an easily measured gene product as a stand-in for the process of interest.

Read-outs that look alike come from different tables or passages of the source.

On to `CC(C(=O)Nc1nncs1)C(c1ccccc1)c1ccc(-c2ccc(C(=O)N3CCOCC3)cc2)s1` (single isomer, unassigned) [Example 144, 2-methyl-3-(5-(4-(4-morpholinylcarbonyl)phenyl)-2-thienyl)-3-phenyl-N-1,3,4-thiadiazol-2-ylpropanamide], for which the “AP-1 Max % inh (Cellular Transrepression Assay)” value (“AP-1 Max % inh” for short) is 49.49 % inh and the EC50 (usually the concentration that produces a half-maximal response) worked out at 5.98 nM.

As to `CC(C(=O)Nc1nncs1)C(c1ccccc1)c1ccc(-c2ccc(C(=O)N3CCOCC3)cc2)s1` (single isomer, unassigned) [Example 145, 2-methyl-3-(5-(4-(4-morpholinylcarbonyl)phenyl)-2-thienyl)-3-phenyl-N-1,3,4-thiadiazol-2-ylpropanamide], the “AP-1 Max % inh” value is listed as 25.24 % inh and the EC50 was determined as 64.6 nM.

For `CC(C(=O)Nc1nncs1)C(c1ccccc1)c1ccc(-c2ccc(C(=O)N(C)C)cc2)s1` (single isomer, unassigned) [Example 146, N,N-dimethyl-4-(5-(2-methyl-3-oxo-1-phenyl-3-(1,3,4-thiadiazol-2-ylamino)propyl)-2-thienyl)benzamide], the EC50 came out at 14.6 nM. The Emax (Homo sapiens, A549, 7 h) came out at 59.1%.

As to `CC(C(=O)Nc1nncs1)C(c1ccccc1)c1ccc(-c2ccc(C(=O)N(C)C)cc2)s1` (single isomer, unassigned) [Example 147, N,N-dimethyl-4-(5-(2-methyl-3-oxo-1-phenyl-3-(1,3,4-thiadiazol-2-ylamino)propyl)-2-thienyl)benzamide], the “AP-1 Max % inh” value is 48.44 % inh and the EC50 turned out to be 168 nM.

`CC(C(=O)Nc1nncs1)C(c1ccccc1)c1ccc(-c2ccc(C(=O)N(C)C)c(Cl)c2)s1` (single isomer, unassigned) [Example 148, 2-chloro-N,N-dimethyl-4-(5-(2-methyl-3-oxo-1-phenyl-3-(1,3,4-thiadiazol-2-ylamino)propyl)-2-thienyl)benzamide]: the EC50 was 24.6 nM. Further, the Emax (Homo sapiens, A549, 7 h) came out at 51.5%.

With `CC(C(=O)Nc1nncs1)C(c1ccccc1)c1ccc(-c2ccc(C(=O)N(C)C)c(Cl)c2)s1` (single isomer, unassigned) [Example 149, 2-chloro-N,N-dimethyl-4-(5-(2-methyl-3-oxo-1-phenyl-3-(1,3,4-thiadiazol-2-ylamino)propyl)-2-thienyl)benzamide], the “AP-1 Max % inh” value stood at 54.20 % inh and the 50% effective concentration (EC50) was found to be 216 nM.

Regarding `CCN(C)C(=O)c1ccc(-c2ccc(C(c3ccccc3)C(C)C(=O)Nc3nncs3)s2)cc1` (single isomer, unassigned) [Example 150, N-ethyl-N-methyl-4-(5-(2-methyl-3-oxo-1-phenyl-3-(1,3,4-thiadiazol-2-ylamino)propyl)-2-thienyl)benzamide], the EC50 came to 17.5 nM. Besides, the Emax (Homo sapiens, A549, 7 h) amounted to 57.2%.

`CCN(C)C(=O)c1ccc(-c2ccc(C(c3ccccc3)C(C)C(=O)Nc3nncs3)s2)cc1` (single isomer, unassigned) [Example 151, N-ethyl-N-methyl-4-(5-(2-methyl-3-oxo-1-phenyl-3-(1,3,4-thiadiazol-2-ylamino)propyl)-2-thienyl)benzamide]: the “AP-1 Max % inh” value is on record as 48.08 % inh and the EC50 stood at 203 nM.

On to `CC(C)(C(=O)Nc1nc(Cc2ccc(-c3ccncc3)cc2)cs1)C(c1ccccc1)c1ccncc1` (stereo not shown) [Example 5, 2,2-dimethyl-3-phenyl-3-(4-pyridinyl)-N-(4-(4-(4-pyridinyl)benzyl)-1,3-thiazol-2-yl)propanamide], for which, for the setting “Homo sapiens, A549, 7 h”, the Emax was determined as 89.9% and the EC50 was 18.7 nM.

`CC(C)(C(=O)Nc1nccs1)C(c1cccc(F)c1)c1ccc(N2CCOCC2)s1` (stereo not shown) [Example 10, 3-(3-fluorophenyl)-2,2-dimethyl-3-(5-(4-morpholinyl)-2-thienyl)-N-1,3-thiazol-2-ylpropanamide]: for the setting “Homo sapiens, A549, 7 h”, the Emax worked out at 40% and the EC50 came to 700 nM.

With `CC(C)(C(=O)Nc1nncs1)C(c1ccccc1)c1ccc(N2CCOCC2)nc1` (stereo not shown) [Example 13, 2,2-dimethyl-3-(6-(4-morpholinyl)-3-pyridinyl)-3-phenyl-N-1,3,4-thiadiazol-2-ylpropanamide], where the note is “Homo sapiens, A549, 7 h”, the Emax stood at 42.2% and the EC50 worked out at 245 nM.

`CC(C)(C(=O)Nc1nccs1)C(c1ccccc1)c1ccc(N2CCOCC2)nc1` (stereo not shown) [Example 14, 2,2-dimethyl-3-(6-(4-morpholinyl)-3-pyridinyl)-3-phenyl-N-1,3-thiazol-2-ylpropanamide]: for the setting “Homo sapiens, A549, 7 h”, the Emax was 46% and the EC50 turned out to be 62.9 nM.

With `COc1ccc(-c2ccc(C(c3ccccc3)C(C)(C)C(=O)Nc3nccs3)cn2)cc1` (stereo not shown) [Example 26, 3-(6-(4-methoxyphenyl)-3-pyridinyl)-2,2-dimethyl-3-phenyl-N-1,3-thiazol-2-ylpropanamide], under “Homo sapiens, A549, 7 h”, the Emax was determined as 41.4% and the EC50 turned out to be 316 nM.

As to `CCCc1ccc(-c2ccc(C(c3ccccc3)C(C)(C)C(=O)Nc3nncs3)cn2)cc1` (stereo not shown) [Example 30, 2,2-dimethyl-3-phenyl-3-(6-(4-propylphenyl)-3-pyridinyl)-N-1,3,4-thiadiazol-2-ylpropanamide], under “Homo sapiens, A549, 7 h”, the Emax was 39.4% and the EC50 is 49 nM.

Regarding `CC(C)Cc1ccc(-c2ccc(C(c3ccccc3)C(C)(C)C(=O)Nc3nncs3)cn2)cc1` (stereo not shown) [Example 31, 3-(6-(4-isobutylphenyl)-3-pyridinyl)-2,2-dimethyl-3-phenyl-N-1,3,4-thiadiazol-2-ylpropanamide], under “Homo sapiens, A549, 7 h”, the Emax was found to be 46.8% and the EC50 was determined as 21.5 nM.

Regarding `CN(C)C(=O)c1ccc(-c2ccc(C(c3ccccc3)C(C)(C)C(=O)Nc3nncs3)cn2)cc1` (stereo not shown) [Example 32, 4-(5-(2,2-dimethyl-3-oxo-1-phenyl-3-(1,3,4-thiadiazol-2-ylamino)propyl)-2-pyridinyl)-N,N-dimethylbenzamide], under “Homo sapiens, A549, 7 h”, the Emax stood at 43.1% and the EC50 was found to be 73.9 nM.

In the case of `CC(C)Oc1ccc(-c2ccc(C(c3ccccc3)C(C)(C)C(=O)Nc3nncs3)cn2)cc1` (stereo not shown) [Example 33, 3-(6-(4-isopropoxyphenyl)-3-pyridinyl)-2,2-dimethyl-3-phenyl-N-1,3,4-thiadiazol-2-ylpropanamide], where the note is “Homo sapiens, A549, 7 h”, the Emax is 37.7% and the EC50 came out at 24 nM.

On to `CC(C)Oc1ccc(-c2ccc(C(c3cccc(F)c3)C(C)(C)C(=O)Nc3nncs3)s2)cc1` (stereo not shown) [Example 38, 3-(3-fluorophenyl)-3-(5-(4-isopropoxyphenyl)-2-thienyl)-2,2-dimethyl-N-1,3,4-thiadiazol-2-ylpropanamide], for which, where the note is “Homo sapiens, A549, 7 h”, the Emax stood at 23.1% and the EC50 came out at 8.43 nM.

On to `CC(C)Cc1ccc(-c2ccc(C(c3cccc(F)c3)C(C)(C)C(=O)Nc3nncs3)s2)cc1` (stereo not shown) [Example 39, 3-(3-fluorophenyl)-3-(5-(4-isobutylphenyl)-2-thienyl)-2,2-dimethyl-N-1,3,4-thiadiazol-2-ylpropanamide], for which, where the note is “Homo sapiens, A549, 7 h”, the Emax amounted to 44.2% and the EC50 was 18.8 nM.

As for `CCCc1ccc(-c2ccc(C(c3cccc(F)c3)C(C)(C)C(=O)Nc3nncs3)s2)cc1` (stereo not shown) [Example 40, -(3-fluorophenyl)-2,2-dimethyl-3-(5-(4-propylphenyl)-2-thienyl)-N-1,3,4-thiadiazol-2-ylpropanamide], the “AP-1 Max % inh” value is 37.26 % inh and the EC50 worked out at 5.36 nM.
